Measured values taken from the supplement of paper PMC10307832.

Tests used:
Experiment in all cases: relative viability (nuclei count vs DMSO), 5 days (fraction); higher = more cells survive
NCI-H1793 = test system: NCI-H1793
In short: (§1)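 Lung cancer cell lines, seeded in 1536-well plates, were treated the following day by pin tool with a single drug or with five library-drug doses (not always all listed) in √10 steps on top of a fixed anchor-drug dose. Cells were fixed and nuclei stained in one step after 5 days, and nuclei were counted. Relative viability is the nuclei count for treated wells divided by that for vehicle wells, reported as medians of duplicate plates.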

LC-2-ad = test system: LC-2-ad
In short: as §1

CAL-12T = test system: CAL-12T
In short: as §1

NCI-H460 = test system: NCI-H460
In short: as §1

LOU-NH91 = test system: LOU-NH91
In short: as §1

UMC-11 = test system: UMC-11
In short: as §1

ABC-1 = test system: ABC-1
In short: as §1

NCI-H3122 = test system: NCI-H3122
In short: as §1

NCI-H1651 = test system: NCI-H1651
In short: as §1

NCI-H1944 = test system: NCI-H1944
In short: as §1

HCC-78 = test system: HCC-78
In short: as §1

NCI-H2405 = test system: NCI-H2405
In short: as §1

HCC-366 = test system: HCC-366
In short: as §1

NCI-H2170 = test system: NCI-H2170
In short: as §1

NCI-H2228 = test system: NCI-H2228
In short: as §1

LU99A = test system: LU99A
In short: as §1

NCI-H1395 = test system: NCI-H1395
In short: as §1

PC-3 [JPC-3] = test system: PC-3 [JPC-3]
In short: as §1

NCI-H1755 = test system: NCI-H1755
In short: as §1

NCI-H2087 = test system: NCI-H2087
In short: as §1

RERF-LC-KJ = test system: RERF-LC-KJ
In short: as §1

CC(=O)O[C@@]12CO[C@@H]1C[C@H](O)[C@@]1(C)C(=O)[C@H](O)C3=C(C)[C@@H](OC(=O)[C@H](O)[C@@H](NC(=O)OC(C)(C)C)c4ccccc4)C[C@@](O)([C@@H](OC(=O)c4ccccc4)[C@H]21)C3(C)C [Docetaxel] + CS(=O)(=O)CCNCc1ccc(-c2ccc3ncnc(Nc4ccc(OCc5cccc(F)c5)c(Cl)c4)c3c2)o1 [Lapatinib] (partner 2 µM)
relative viability (NCI-H1793; first compound 0.0002 µM): 0.569
relative viability (NCI-H1793; first compound 0.000632 µM): 0.618
relative viability (NCI-H1793; first compound 0.006325 µM): 0.315
relative viability (NCI-H1793; first compound 0.02 µM): 0.216
relative viability (LC-2-ad; first compound 0.0002 µM): 0.538
relative viability (LC-2-ad; first compound 0.000632 µM): 0.296
relative viability (LC-2-ad; first compound 0.002 µM): 0.14
relative viability (LC-2-ad; first compound 0.006325 µM): 0.112
relative viability (LC-2-ad; first compound 0.02 µM): 0.0888
relative viability (CAL-12T; first compound 0.0002 µM): 0.757
relative viability (CAL-12T; first compound 0.000632 µM): 0.496
relative viability (CAL-12T; first compound 0.002 µM): 0.277
relative viability (CAL-12T; first compound 0.006325 µM): 0.25
relative viability (NCI-H460; first compound 0.0002 µM): 0.665
relative viability (NCI-H460; first compound 0.000632 µM): 0.163
relative viability (NCI-H460; first compound 0.002 µM): 0.0209
relative viability (NCI-H460; first compound 0.006325 µM): 0.0147
relative viability (NCI-H460; first compound 0.02 µM): 0.0097
relative viability (LOU-NH91; first compound 0.0002 µM): 0.715
relative viability (LOU-NH91; first compound 0.000632 µM): 0.589
relative viability (LOU-NH91; first compound 0.002 µM): 0.462
relative viability (LOU-NH91; first compound 0.006325 µM): 0.361
relative viability (LOU-NH91; first compound 0.02 µM): 0.351
relative viability (UMC-11; first compound 0.0002 µM): 0.8
relative viability (UMC-11; first compound 0.000632 µM): 0.831
relative viability (UMC-11; first compound 0.002 µM): 0.249
relative viability (UMC-11; first compound 0.006325 µM): 0.26
relative viability (UMC-11; first compound 0.02 µM): 0.148
relative viability (ABC-1; first compound 0.0002 µM): 1.21
relative viability (ABC-1; first compound 0.000632 µM): 1.12
relative viability (ABC-1; first compound 0.002 µM): 1.14
relative viability (ABC-1; first compound 0.006325 µM): 0.797
relative viability (ABC-1; first compound 0.02 µM): 0.577
relative viability (NCI-H3122; first compound 0.0002 µM): 0.979
relative viability (NCI-H3122; first compound 0.000632 µM): 0.977
relative viability (NCI-H3122; first compound 0.002 µM): 0.942
relative viability (NCI-H3122; first compound 0.006325 µM): 0.296
relative viability (NCI-H3122; first compound 0.02 µM): 0.242
relative viability (NCI-H1651; first compound 0.0002 µM): 0.724
relative viability (NCI-H1651; first compound 0.000632 µM): 0.496
relative viability (NCI-H1651; first compound 0.002 µM): 0.161
relative viability (NCI-H1651; first compound 0.006325 µM): 0.11
relative viability (NCI-H1651; first compound 0.02 µM): 0.101
relative viability (NCI-H1944; first compound 0.0002 µM): 0.545
relative viability (NCI-H1944; first compound 0.000632 µM): 0.667
relative viability (NCI-H1944; first compound 0.002 µM): 0.579
relative viability (NCI-H1944; first compound 0.006325 µM): 0.242
relative viability (NCI-H1944; first compound 0.02 µM): 0.112
relative viability (HCC-78; first compound 0.0002 µM): 0.593
relative viability (HCC-78; first compound 0.000632 µM): 0.634
relative viability (HCC-78; first compound 0.002 µM): 0.461
relative viability (HCC-78; first compound 0.006325 µM): 0.246
relative viability (HCC-78; first compound 0.02 µM): 0.204
relative viability (NCI-H2405; first compound 0.0002 µM): 1.03
relative viability (NCI-H2405; first compound 0.000632 µM): 0.623
relative viability (NCI-H2405; first compound 0.002 µM): 0.557
relative viability (NCI-H2405; first compound 0.006325 µM): 0.488
relative viability (NCI-H2405; first compound 0.02 µM): 0.345
relative viability (HCC-366; first compound 0.0002 µM): 0.938
relative viability (HCC-366; first compound 0.000632 µM): 0.054
relative viability (HCC-366; first compound 0.002 µM): 0.0282
relative viability (HCC-366; first compound 0.006325 µM): 0.0194
relative viability (HCC-366; first compound 0.02 µM): 0.011
relative viability (NCI-H2170; first compound 0.0002 µM): 0.279
relative viability (NCI-H2170; first compound 0.000632 µM): 0.265
relative viability (NCI-H2170; first compound 0.002 µM): 0.194
relative viability (NCI-H2170; first compound 0.006325 µM): 0.224
relative viability (NCI-H2170; first compound 0.02 µM): 0.184
relative viability (NCI-H2228; first compound 0.0002 µM): 0.641
relative viability (NCI-H2228; first compound 0.000632 µM): 0.184
relative viability (NCI-H2228; first compound 0.002 µM): 0.255
relative viability (NCI-H2228; first compound 0.006325 µM): 0.267
relative viability (NCI-H2228; first compound 0.02 µM): 0.16
relative viability (LU99A; first compound 0.0002 µM): 0.799
relative viability (LU99A; first compound 0.000632 µM): 0.424
relative viability (LU99A; first compound 0.002 µM): 0.423
relative viability (LU99A; first compound 0.006325 µM): 0.255
relative viability (LU99A; first compound 0.02 µM): 0.188
relative viability (NCI-H1395; first compound 0.0002 µM): 0.992
relative viability (NCI-H1395; first compound 0.000632 µM): 0.954
relative viability (NCI-H1395; first compound 0.002 µM): 0.775
relative viability (NCI-H1395; first compound 0.006325 µM): 0.368
relative viability (NCI-H1395; first compound 0.02 µM): 0.268
relative viability (PC-3 [JPC-3]; first compound 0.0002 µM): 0.44
relative viability (PC-3 [JPC-3]; first compound 0.000632 µM): 0.476
relative viability (PC-3 [JPC-3]; first compound 0.002 µM): 0.385
relative viability (PC-3 [JPC-3]; first compound 0.006325 µM): 0.295
relative viability (PC-3 [JPC-3]; first compound 0.02 µM): 0.197
relative viability (NCI-H1755; first compound 0.0002 µM): 0.99
relative viability (NCI-H1755; first compound 0.000632 µM): 0.756
relative viability (NCI-H1755; first compound 0.002 µM): 0.495
relative viability (NCI-H1755; first compound 0.006325 µM): 0.448
relative viability (NCI-H1755; first compound 0.02 µM): 0.258
relative viability (NCI-H2087; first compound 0.0002 µM): 0.831
relative viability (NCI-H2087; first compound 0.000632 µM): 0.678
relative viability (NCI-H2087; first compound 0.002 µM): 0.351
relative viability (NCI-H2087; first compound 0.006325 µM): 0.269
relative viability (NCI-H2087; first compound 0.02 µM): 0.137
relative viability (RERF-LC-KJ; first compound 0.0002 µM): 0.808
relative viability (RERF-LC-KJ; first compound 0.000632 µM): 0.841
relative viability (RERF-LC-KJ; first compound 0.002 µM): 0.498
relative viability (RERF-LC-KJ; first compound 0.006325 µM): 0.177
relative viability (RERF-LC-KJ; first compound 0.02 µM): 0.198
